The target in data set [1] is T1, HOIP RBR domain (Homo sapiens, UniProt Q96EP0).
T1 construct: made in house; host or cells: E. coli BL21-GOLD(DE3)
T1 sequence (Q96EP0 697-1072): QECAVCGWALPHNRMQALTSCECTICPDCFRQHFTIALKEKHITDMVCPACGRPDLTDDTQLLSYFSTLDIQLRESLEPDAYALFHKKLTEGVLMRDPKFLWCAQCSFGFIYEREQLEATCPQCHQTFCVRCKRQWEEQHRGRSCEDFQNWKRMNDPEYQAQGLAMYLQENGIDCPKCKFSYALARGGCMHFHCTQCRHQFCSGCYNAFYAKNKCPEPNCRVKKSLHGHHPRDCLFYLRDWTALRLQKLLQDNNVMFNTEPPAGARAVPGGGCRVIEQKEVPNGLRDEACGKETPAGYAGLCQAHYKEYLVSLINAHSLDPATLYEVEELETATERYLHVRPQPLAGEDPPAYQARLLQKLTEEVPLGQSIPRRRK
Description: Protein LC-MS compound screening of analogs. Format: binding. The conditions noted are these: 2 μM protein, 0.5, 4, 24 h; for labeling of HOIP RBR domain relative to hit (5): 20 μM compound (10-fold excess). On the procedure:
of (1) and 3 mM stock solution of (5) in DMSO, giving a final concentration of 6 and 30 µM respectively, and 1% DMSO).
The UbcH5c and UbcH7 E2 enzymes were diluted with buffer to afford new stock solutions at 10 µM, of which 25 µL was used for each sample (final concentration 5 µM, 85-91 µg/mL), together with 24.5 µL buffer and 0.5 µL compound solution (1 mM stock solution of (1) and 5 mM stock solution of (5) in DMSO, giving a final concentration of 10 and 50 µM respectively, and 1% DMSO).
The E1 enzyme was diluted with buffer to afford a new stock solution at 2 µM, of which 25 µL was used for each sample (final concentration 1 µM, 120 µg/mL), together with 24.5 µL buffer and 0.5 µL compound solution (200 µM stock solution of (1) and 1 mM stock solution of (5) in DMSO, giving a final concentration of 2 and 10 µM respectively, and 1% DMSO).
Protocol as described above, using the HOIP RBR (stock solutions around 300 µM) in buffer (50 mM HEPES, 150 mM NaCl, pH 7.5) to afford a new stock solution at 4 µM of which 25 µL was used for each sample (final concentration 2 µM, 87 µg/mL), together with 24.5 µL buffer and 0.5 µL compound solution (2 mM stock solutions in DMSO, giving a final concentration of 20 µM, and 1% DMSO). The samples were analyzed after 0.5, 4, and 24 h incubation.
Supplementary Figure S7. TIC traces of deconvoluted protein masses from the screening of analogues to hit compound (5). The HOIP RBR (2 µM; MW = 43398 g/mol) was incubated with […]
compound (17) and aliquots were analyzed after 0.5, 4, and 24 h incubation. The data was used for the generation of the heat map in Figure 5A.
(1 picture or pasted object on this page, not shown here)

Data set [2] has as its target T1, HOIP RBR domain. In words: In vitro polyubiquitination assay. The note with it: HOIP RBR preincubated with compound (200 μM) overnight; E2 UbcH7 or UbcH5c; vs DMSO. Format: biochemical. As to the method: 4.3 Polyubiquitination assay
The ubiquitination assay was essentially carried out as previously described.12 The HOIP RBR domain was pre-incubated with compounds (5) or (6), or DMSO in 50 mM HEPES, 150 mM NaCl, pH 7.5 buffer at 23 °C with gentle shaking for overnight (20-24 h). E1, E2 (UbcH7 or UbcH5c), ubiquitin, and MgCl2 were added to each vial, and aliquots of 15 µL were withdrawn to mark time zero. ATP was then added and aliquots of 15 µL were withdrawn after 5, 15, 30, and 60 min incubation. Final concentrations: E1 (1 µM), E2 (5 µM), E3 (5 µM), compounds (200 µM), DMSO (1%), ubiquitin (40 µM), MgCl2 (20 mM), ATP (10 mM); reaction volume 100 µL. The aliquots were analyzed by SDS PAGE (Figure 4A and Supplementary Figure S9) as described below (section

Data set [3] deals with NF-κB activation in HEK293T cells overexpressing full length HOIP, HOIL-1L, and SHARPIN. Description: NF-κB Luciferase reporter assay. The class given is cell-based. The conditions noted are these: overnight (17 h) treatment. On the procedure: suspensions were agitated at 4 °C overnight. The supernatants were removed and kept on ice, and the beads were washed with wash buffer (2 × 0.5 mL), PBS (2 × 0.5 mL), and 50 mM HEPES, 150 mM NaCl, pH 7.5 buffer (2 × 0.5 mL).
A polyubiquitination assay master mix was prepared by mixing E1, UbcH7, ubiquitin, MgCl2, in buffer (50 mM HEPES, 150 mM NaCl, pH 7.5). The solution (30 µL per sample) was added to the beads, and lastly ATP (0.6 µL of 100 mM stock) was added to initiate the reaction. Final concentrations were E1 (0.2 µM), UbcH7 E2 (1 µM), ubiquitin (10 µM), MgCl2 (4 mM), ATP (2 mM). The vials were incubated (Eppendorf Thermomixer) at 25 °C, 900 rpm for 1.5 h. […] All samples were analyzed by SDS PAGE and Western Blot (Figure 6C and Supplementary Figure S13) as described in sections 4.5 and 4.6. […]
(§1) Reporter assays: After incubating the plates for 17 h, Firefly and Renilla Luciferase activity was analyzed using the Dual-Luciferase® Reporter Assay System (Promega) and a BertholdTech […]
(§2) with Mikrowin 2000 software version 4.41: using its injectors to inject 100 µL LAR II and 100 µL Stop&Glo (see manufacturer’s instructions; Promega #E1960). NF-κB regulated luciferase activity was first normalized to Renilla luciferase activity and then the fold activation relative to cells transfected with empty vector calculated. […]
reader. […]

The test system of data set [4] is HEK293T cells overexpressing full-length HOIP, HOIL-1L, and SHARPIN. Description: CellTiter-Glo Luminescent cell viability assay, transfected cells. The conditions noted are these: 17 h. Format: cell-based. As to the method:
Thurston, Imperial College London. 2.3 × 10^6 cells were seeded into 100 mm Petri dishes in DMEM media supplemented with 10% v/v FBS (Biosera) and 1% v/v L-glutamine/penicillin/streptomycin (Sigma-Aldrich) and incubated at 37 °C overnight. The following morning the cells were transfected using either 6 µg pcDNA3 or 4.5 µg HOIP, 0.3 µg HOIL-1L and 1.2 µg SHARPIN as well as 450 ng pRDII Luc and 180 ng pRLTK (Promega) plasmids. 7 h after transfection, the cells were trypsinized and re-suspended in DMEM media supplemented with 1% v/v FBS (Biosera) and 1% v/v L-glutamine/penicillin/streptomycin (Sigma-Aldrich). […]
as §1, §2
Cell viability assays: After incubating the plates for 17 h in the presence of compound, cell viability was determined using the CellTiter-Glo® Luminescent Cell Viability Assay according to manufacturer’s instructions (Promega #G7571). […]
On the technique in general: ATP-based viability assays read luminescence as a measure of living cells.

“Also recorded” adds a separate entry of the source.

As to `COC(=O)CCCNC(=O)c1cc2c([nH]c1=O)CCC2` [Compound 6], the “labeling of HOIP RBR domain relative to hit (5)” value at HOIP RBR domain [1] is “abolished activity”. Also, the polyubiquitin chain formation result at HOIP RBR domain [2] is given as “no inhibitory effect; also recorded: no effect on catalytic activity”.
Turning to `COC(=O)/C=C/CCNC(=O)c1cc2c([nH]c1=O)CCC2` [Compound 9], the “labeling of HOIP RBR domain relative to hit (5)” value at HOIP RBR domain [1] is “significantly lower activity”.
Still for that read-out and setting: in the case of `COC(=O)/C=C/CNC(C)=O` [Compound 10] it was “significantly lower activity”; in that of `COC(=O)/C=C/CNC(=O)c1ccc(-c2ccccc2)[nH]c1=O` [Compound 11i], “inactive”.
As to `COC(=O)CCCNC(=O)c1cc2c([nH]c1=O)CCCC2` [Compound 17], on HOIP RBR domain [1] (200 μM compound), the “labeling of HOIP RBR domain” value is listed as “abolished activity”. The “effect on NF-κB activity” value in data set [3] is “no effect on NF-κB activity”. In data set [4], the “effect on cell viability” value was “neither compound had any effect on cell viability”.
